pIC50: −log10 of the molar value.
Target: T1, PD-1/PD-L1 (Homo sapiens, UniProt Q9NZQ7)
T1 construct: made in house; host or cells: HEK293T
Test: PD-1/PD-L1 Homogenous Time-Resolved Fluorescence (HTRF) binding assay
Conditions: PD-L1-His 10 nM, PD-1-Ig 20 nM; numeric IC50; read-out: Range or IC50
Method in brief: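 Compounds are tested for blocking the PD-1/PD-L1 interaction in dPBS supplemented with 0.1% BSA and 0.05% (v/v) Tween-20. Tagged proteins are detected with Eu-cryptate anti-Ig and APC anti-His at 1 and 20 nM final.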

T1 sequence (Q9NZQ7 with tags, fused parts or gaps): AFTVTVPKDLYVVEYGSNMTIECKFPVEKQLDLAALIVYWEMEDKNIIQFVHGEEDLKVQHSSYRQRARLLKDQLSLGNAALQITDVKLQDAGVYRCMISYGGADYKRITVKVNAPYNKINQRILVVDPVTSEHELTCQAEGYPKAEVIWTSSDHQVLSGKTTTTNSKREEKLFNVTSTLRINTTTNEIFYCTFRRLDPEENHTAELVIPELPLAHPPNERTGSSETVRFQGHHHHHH

Row | pIC50 | Compound
1 | 7.04 | CCN(CC)C(=O)c1cccc(-c2cccc(COc3cc(OCc4cncc(C#N)c4)c(CN4CCCC[C@H]4C(=O)O)cc3Cl)c2C)c1C [Example 4040, (S)-1-(5-chloro-2-((5-cyanopyridin-3-yl)methoxy)-4-((3′-(diethylcarbamoyl)-2,2′-dimethyl-[1,1′-biphenyl]-3-yl)methoxy)benzyl)piperidine-2-carboxylic Acid]
2 | 9.30 | Cc1c(COc2cc(OCc3cncc(C#N)c3)c(CN(C)C(CO)(CO)CO)cc2Cl)cccc1-c1cccc(OCCCN2CCC(F)(F)C2)c1C [Example 4121, 5-((4-chloro-5-((3′-(3-(3,3-difluoropyrrolidin-1-yl)propoxy)-2,2′-dimethyl-[1,1′-biphenyl]-3-yl)methoxy)-2-(((1,3-dihydroxy-2-(hydroxymethyl)propan-2-yl)(methyl)amino)methyl)phenoxy)methyl)nicotinonitrile]

Same assay, conditions: PD-L1-His 10 nM, PD-1-Ig 20 nM; value given as range class; read-out: Range or IC50

Row | Compound | pIC50
3 | Cc1c(COc2cc(OCc3cncc(C#N)c3)c(CO)cc2Cl)cccc1-c1cccc(OCCCN2CCCCC2)c1Cl [Example 2018, 5-((4-chloro-5-((2′-chloro-2-methyl-3′-(3-(piperidin-1-yl)propoxy)-[1,1′-biphenyl]-3-yl)methoxy)-2-(hydroxymethyl)phenoxy)methyl)nicotinonitrile] | 8.00 to 9.68
4 | Cc1c(COc2cc(OCc3cncc(C#N)c3)c(CN[C@H](CO)C(=O)O)cc2Cl)cccc1-c1cccc(OCCCN2CC[C@@H](O)C2)c1Cl [Example 1512, (R)-2-((5-chloro-4-((2′-chloro-3′-(3-((R)-3-hydroxypyrrolidin-1-yl)propoxy)-2-methyl-[1,1′-biphenyl]-3-yl)methoxy)-2-((5-cyanopyridin-3-yl)methoxy)benzyl)amino)-3-hydroxypropanoic acid] | 8.00 to 9.68
5 | Cc1c(COc2cc(OCc3cncc(C#N)c3)c(CN3CCCC[C@H]3C(=O)O)cc2Cl)cccc1-c1cccc(OCCCN2[C@@H]3CC[C@H]2COC3)c1C [Example 3051, (S)-1-(4-((3′-(3-((1R,5S)-3-oxa-8-azabicyclo[3.2.1]octan-8-yl)propoxy)-2,2′-dimethyl-[1,1′-biphenyl]-3-yl)methoxy)-5-chloro-2-((5-cyanopyridin-3-yl)methoxy)benzyl)piperidine-2-carboxylic Acid] | 8.00 to 9.68
6 | CC(=O)NC1CCN(CCCOc2cccc(-c3cccc(COc4cc(OCc5cncc(C#N)c5)c(CNC(CO)CO)cc4Cl)c3C)c2Cl)C1 (stereo not drawn) [Example 2052, N-(1-(3-((2-chloro-3′-((2-chloro-5-((5-cyanopyridin-3-yl)methoxy)-4-(((1,3-dihydroxypropan-2-yl)amino)methyl)phenoxy)methyl)-2′-methyl-[1,1′-biphenyl]-3-yl)oxy)propyl)pyrrolidin-3-yl)acetamide] | 8.00 to 9.68
7 | Cc1c(COc2cc(OCc3cncc(C#N)c3)c(CNC(C)(CO)CO)cc2Cl)cccc1-c1cccc(OCCCN2CCCC(CO)C2)c1Cl (stereo not drawn) [Example 2098, 5-((4-chloro-5-((2′-chloro-3′-(3-(3-(hydroxymethyl)piperidin-1-yl)propoxy)-2-methyl-[1,1′-biphenyl]-3-yl)methoxy)-2-(((1,3-dihydroxy-2-methylpropan-2-yl)amino)methyl)phenoxy)methyl)nicotinonitrile] | 8.00 to 9.68

Further lines, results first:

Row | pIC50 | Compound
8 | 5.70 to 7.00 | Cc1c(COc2cc(OCc3cncc(C#N)c3)c(CN3CCNC[C@H]3C(=O)O)cc2Cl)cccc1-c1cccc(C(=O)N2CCOCC2)c1C [Example 4060, (S)-1-(5-chloro-2-((5-cyanopyridin-3-yl)methoxy)-4-((2,2′-dimethyl-3′-(morpholine-4-carbonyl)-[1,1′-biphenyl]-3-yl)methoxy)benzyl)piperazine-2-carboxylic Acid]
9 | 5.70 to 7.00 | CNC(=O)c1cccc(-c2cccc(COc3cc(OCc4cc(F)cc(F)c4)c(CN4C[C@H](O)C[C@H]4C(=O)O)cc3Cl)c2C)c1C [Example 4025, (2S,4R)-1-(5-chloro-2-((3,5-difluorobenzyl)oxy)-4-((2,2′-dimethyl-3′-(methylcarbamoyl)-[1,1′-biphenyl]-3-yl)methoxy)benzyl)-4-hydroxypyrrolidine-2-carboxylic Acid]

Source: patent US10745382B2 (BRISTOL-MYERS SQUIBB COMPANY, priority 2015, dated 2020)
